Measurements taken from ChEMBL document CHEMBL1201862, “PubChem BioAssay data set” (2004).
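Interpolation was linear, between the two tested concentrations surrounding the appropriate level; five concentrations were tested over 48 hours in 96-well plates. GI50 is the concentration that inhibits growth by half.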 Active and inactive are the calls of the source. Rule as the data show it: active = GI50 up to about 1.1 µM and inactive = higher.

Legend:
Test in all cases: NCI-60 cell line screen, 48 h
SK-MEL-5 = system: SK-MEL-5
HOP-92 = system: HOP-92
A549 = system: A549
UO-31 = system: UO-31
KM12 = system: KM12
HT-29 = system: HT-29
RPMI-8226 = system: RPMI-8226
SK-MEL-28 = system: SK-MEL-28
SNB-19 = system: SNB-19
SF-295 = system: SF-295
HCC 2998 = system: HCC 2998
TK-10 = system: TK-10
HCT-116 = system: HCT-116
HOP-62 = system: HOP-62
U-251 = system: U-251
IGROV-1 = system: IGROV-1
SK-OV-3 = system: SK-OV-3
SF-539 = system: SF-539
SW-620 = system: SW-620
UACC-257 = system: UACC-257
ACHN = system: ACHN
SF-268 = system: SF-268
DLD-1 = system: DLD-1
HL-60 = system: HL-60
MOLT-4 = system: MOLT-4
SNB-75 = system: SNB-75
K562 = system: K562
NCI-H460 = system: NCI-H460
HOP-18 = system: HOP-18
M19-MEL = system: M19-MEL
LXFL 529 = system: LXFL 529
CCRF-CEM = system: CCRF-CEM
NCI-H23 = system: NCI-H23
SR = system: SR
OVCAR-8 = system: OVCAR-8
NCI-H226 = system: NCI-H226
NCI-H522 = system: NCI-H522
SK-MEL-2 = system: SK-MEL-2
UACC-62 = system: UACC-62
COLO 205 = system: COLO 205
OVCAR-3 = system: OVCAR-3
Malme-3M = system: Malme-3M
OVCAR-5 = system: OVCAR-5
786-0 = system: 786-0
SN12C = system: SN12C
DU-145 = system: DU-145
OVCAR-4 = system: OVCAR-4
EKVX = system: EKVX
RXF 393 = system: RXF 393
HCT-15 = system: HCT-15
MDA-MB-231 = system: MDA-MB-231
A498 = system: A498
LOX IMVI = system: LOX IMVI
Hs-578T = system: Hs-578T
CAKI-1 = system: CAKI-1
T47D = system: T47D
M14 = system: M14
BT-549 = system: BT-549
NCI/ADR-RES = system: NCI/ADR-RES
MDA-MB-435 = system: MDA-MB-435
PC-3 = system: PC-3
MCF7 = system: MCF7
MDA-N = system: MDA-N

Q: Which GI50 (SK-MEL-5) does the source give for `CC(=O)Nc1ccc(C(=O)NN2C(=O)C(Cl)/C2=C/c2ccco2)cc1` (configuration not stated) here?
A: > 100 µM (inactive)

Q: What about the GI50 (HOP-92) of the same compound?
A: > 100 µM (inactive)

Q: And the GI50 (A549)?
A: > 100 µM (inactive)

Q: And the GI50 (UO-31)?
A: > 100 µM (inactive)

Q: What about the GI50 (KM12) of the same compound?
A: > 100 µM (inactive)

Q: What about the GI50 (HT-29) of the same compound?
A: > 100 µM (inactive)

Q: What about the GI50 (RPMI-8226) of the same compound?
A: > 100 µM (inactive)

Q: And the GI50 (SK-MEL-28)?
A: > 100 µM (inactive)

Q: What about the GI50 (SNB-19) of the same compound?
A: > 100 µM (inactive)

Q: What about the GI50 (SF-295) of the same compound?
A: > 100 µM (inactive)

Q: And the GI50 (HCC 2998)?
A: > 100 µM (inactive)

Q: What about the GI50 (TK-10) of the same compound?
A: > 100 µM (inactive)

Q: What about the GI50 (HCT-116) of the same compound?
A: > 100 µM (inactive)

Q: And the GI50 (HOP-62)?
A: > 100 µM (inactive)

Q: What about the GI50 (U-251) of the same compound?
A: > 100 µM (inactive)

Q: And the GI50 (IGROV-1)?
A: > 100 µM (inactive)

Q: What about the GI50 (SK-OV-3) of the same compound?
A: > 100 µM (inactive)

Q: What about the GI50 (SF-539) of the same compound?
A: > 100 µM (inactive)

Q: And the GI50 (SW-620)?
A: > 100 µM (inactive)

Q: And the GI50 (UACC-257)?
A: > 100 µM (inactive)

Q: What about the GI50 (ACHN) of the same compound?
A: > 100 µM (inactive)

Q: And the GI50 (SF-268)?
A: > 100 µM (inactive)

Q: And the GI50 (DLD-1)?
A: > 100 µM (inactive)

Q: What about the GI50 (HL-60) of the same compound?
A: > 100 µM (inactive)

Q: What about the GI50 (MOLT-4) of the same compound?
A: > 100 µM (inactive)

Q: What about the GI50 (SNB-75) of the same compound?
A: > 100 µM (inactive)

Q: And the GI50 (K562)?
A: > 100 µM (inactive)

Q: And the GI50 (NCI-H460)?
A: > 100 µM (inactive)

Q: And the GI50 (HOP-18)?
A: > 100 µM (inactive)

Q: And the GI50 (M19-MEL)?
A: > 100 µM (inactive)

Q: And the GI50 (LXFL 529)?
A: > 100 µM (inactive)

Q: What about the GI50 (CCRF-CEM) of the same compound?
A: > 100 µM (inactive)

Q: What about the GI50 (NCI-H23) of the same compound?
A: > 100 µM (inactive)

Q: What about the GI50 (SR) of the same compound?
A: > 100 µM (inactive)

Q: And the GI50 (OVCAR-8)?
A: > 100 µM (inactive)

Q: What about the GI50 (NCI-H226) of the same compound?
A: > 100 µM (inactive)

Q: And the GI50 (NCI-H522)?
A: > 100 µM (inactive)

Q: What about the GI50 (SK-MEL-2) of the same compound?
A: > 100 µM (inactive)

Q: What about the GI50 (UACC-62) of the same compound?
A: > 100 µM (inactive)

Q: What about the GI50 (COLO 205) of the same compound?
A: > 100 µM (inactive)

Q: What about the GI50 (OVCAR-3) of the same compound?
A: > 100 µM (inactive)

Q: What about the GI50 (Malme-3M) of the same compound?
A: > 100 µM (inactive)

Q: What about the GI50 (OVCAR-5) of the same compound?
A: > 100 µM (inactive)

Q: How did the GI50 (SK-MEL-5) turn out when `COc1cc(NC=C2C(=O)OC(C)(C)OC2=O)c(OC)c(C)c1OC` was run?
A: > 100 µM (inactive)

Q: And the GI50 (HOP-92)?
A: > 100 µM (inactive)

Q: And the GI50 (A549)?
A: > 100 µM (inactive)

Q: What about the GI50 (UO-31) of the same compound?
A: > 100 µM (inactive)

Q: And the GI50 (KM12)?
A: > 100 µM (inactive)

Q: What about the GI50 (HT-29) of the same compound?
A: > 100 µM (inactive)

Q: What about the GI50 (RPMI-8226) of the same compound?
A: > 100 µM (inactive)

Q: What about the GI50 (786-0) of the same compound?
A: > 100 µM (inactive)

Q: And the GI50 (SK-MEL-28)?
A: > 100 µM (inactive)

Q: And the GI50 (SN12C)?
A: > 100 µM (inactive)

Q: And the GI50 (DU-145)?
A: > 100 µM (inactive)

Q: And the GI50 (OVCAR-4)?
A: > 74 µM (inactive)

Q: What about the GI50 (SNB-19) of the same compound?
A: > 100 µM (inactive)

Q: And the GI50 (EKVX)?
A: > 100 µM (inactive)

Q: What about the GI50 (SF-295) of the same compound?
A: > 100 µM (inactive)

Q: And the GI50 (HCC 2998)?
A: > 100 µM (inactive)

Q: And the GI50 (TK-10)?
A: > 100 µM (inactive)

Q: And the GI50 (HCT-116)?
A: > 100 µM (inactive)

Q: And the GI50 (HOP-62)?
A: > 100 µM (inactive)

Q: And the GI50 (RXF 393)?
A: > 100 µM (inactive)

Q: And the GI50 (HCT-15)?
A: > 100 µM

Q: And the GI50 (U-251)?
A: > 100 µM (inactive)

Q: And the GI50 (IGROV-1)?
A: > 100 µM (inactive)

Q: And the GI50 (MDA-MB-231)?
A: > 100 µM (inactive)

Q: What about the GI50 (SK-OV-3) of the same compound?
A: > 100 µM (inactive)

Q: What about the GI50 (SF-539) of the same compound?
A: > 100 µM (inactive)

Q: What about the GI50 (SW-620) of the same compound?
A: > 100 µM (inactive)

Q: And the GI50 (UACC-257)?
A: > 100 µM (inactive)

Q: And the GI50 (ACHN)?
A: > 100 µM (inactive)

Q: What about the GI50 (A498) of the same compound?
A: > 100 µM (inactive)

Q: And the GI50 (SF-268)?
A: > 100 µM (inactive)

Q: What about the GI50 (HL-60) of the same compound?
A: > 100 µM (inactive)

Q: And the GI50 (LOX IMVI)?
A: > 100 µM (inactive)

Q: And the GI50 (Hs-578T)?
A: > 100 µM (inactive)

Q: And the GI50 (MOLT-4)?
A: > 100 µM (inactive)

Q: What about the GI50 (CAKI-1) of the same compound?
A: > 83.4 µM (inactive)

Q: And the GI50 (T47D)?
A: > 100 µM (inactive)

Q: What about the GI50 (M14) of the same compound?
A: > 100 µM (inactive)

Q: And the GI50 (SNB-75)?
A: > 88.3 µM (inactive)

Q: And the GI50 (BT-549)?
A: > 100 µM (inactive)

Q: And the GI50 (K562)?
A: > 100 µM (inactive)

Q: What about the GI50 (NCI-H460) of the same compound?
A: > 100 µM (inactive)

Q: And the GI50 (NCI/ADR-RES)?
A: > 100 µM (inactive)

Q: And the GI50 (CCRF-CEM)?
A: > 100 µM (inactive)

Q: And the GI50 (MDA-MB-435)?
A: > 100 µM (inactive)

Q: What about the GI50 (NCI-H23) of the same compound?
A: > 100 µM (inactive)

Q: And the GI50 (SR)?
A: > 100 µM (inactive)

Q: What about the GI50 (PC-3) of the same compound?
A: > 100 µM (inactive)

Q: And the GI50 (OVCAR-8)?
A: > 100 µM (inactive)

Q: And the GI50 (NCI-H226)?
A: > 100 µM (inactive)

Q: What about the GI50 (MCF7) of the same compound?
A: > 100 µM (inactive)

Q: What about the GI50 (MDA-N) of the same compound?
A: > 100 µM (inactive)

Q: What about the GI50 (NCI-H522) of the same compound?
A: > 100 µM (inactive)

Q: And the GI50 (SK-MEL-2)?
A: > 100 µM (inactive)

Q: And the GI50 (UACC-62)?
A: > 100 µM (inactive)

Q: And the GI50 (COLO 205)?
A: > 100 µM (inactive)

Q: And the GI50 (OVCAR-3)?
A: > 100 µM (inactive)

Q: What about the GI50 (Malme-3M) of the same compound?
A: > 65.2 µM (inactive)

Q: What about the GI50 (OVCAR-5) of the same compound?
A: > 100 µM (inactive)
